The source of these data is patent US7321056B2, “Selective peroxisome proliferator activated receptor modulators” (Eli Lilly and Company, priority 2003, dated 2008).

SMILES strings stand for the structures.

The target of data set [1] is T1, PPARγ (Homo sapiens, UniProt P37231).
T1 construct: made in house; host or cells: baculovirus expression system
The data set is described as follows: Competitive displacement binding assay (SPA), PPARγ. The following applies: PPARγ/RXRα. The protocol:
Binding assays are performed using scintillation proximity assay (SPA) technology, PPAR receptors, and corresponding radiolabeled ligands. PPARα and PPARγ along with their heterodimeric partner, retinoid X receptor α, are each produced using a baculovirus expression system. Biotinylated oligonucleotides containing PPAR response elements (PPREs) are used to couple the corresponding receptor dimers to yttrium silicate streptavidin-coated SPA beads. PPARγ- and PPARα-specific ligands are labeled with tritium and used in the appropriate corresponding assays. The IC50 values (compound concentration which causes 50% inhibition) for each competing compound are calculated after deduction of non-specific binding (measured in the presence of 10 μM unlabeled ligand). Compounds are evaluated using an 11-point dose response curve with concentrations ranging from 0.169 nM to 10 μM. Reported values represent means from one to seven separate experiments.

The target in a further data set is T2, PPARα (Homo sapiens, UniProt Q07869).
T2 construct: For PPARα, a GAL4 chimeric system is the standard CTF assay performed
T2 sequence (Q07869 200-468 limits assumed): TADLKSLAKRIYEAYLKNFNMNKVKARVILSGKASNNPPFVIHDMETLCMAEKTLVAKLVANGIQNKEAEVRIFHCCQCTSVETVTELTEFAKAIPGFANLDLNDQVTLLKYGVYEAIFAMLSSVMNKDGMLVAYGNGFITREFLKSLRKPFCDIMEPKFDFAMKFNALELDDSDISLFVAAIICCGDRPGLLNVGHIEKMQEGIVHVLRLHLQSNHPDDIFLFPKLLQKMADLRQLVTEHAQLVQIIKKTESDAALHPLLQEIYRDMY
The data set is described as follows: Cotransfection (CTF) assay, PPARα GAL4 chimeric system in CV-1 cells. The following applies: for Eff (α): relative to reference molecule. It is filed as cell-based. An excerpt: (§1) PPARγ or PPARα are constitutively expressed using plasmids containing the cytomegalovirus promoter. Reporter plasmids for the PPARγ CTF assays contain PPREs from the following genes: acyl coA oxidase (AOX); apolipoprotein A1 (ApoA1); lipoprotein lipase (LPL); or enoyl-CoA hydratase/3-hydroxyacyl-CoA dehydrogenase (HD) plus the thymidine kinase (TK) promoter upstream of the luciferase reporter cDNA. A PPARγ […] galactosidase (GAL4) chimeric system is also used. For PPARα, a GAL4 chimeric system is the standard CTF assay performed. All assays are done in CV-1 cells. Compounds are tested in full log dilution, from 0.1 nM to 10 μM in duplicate. Percent efficacies are determined relative to reference molecules with the efficacy value reflecting the greatest amount of agonist activity achieved in the CTF assay for each compound. Median effective concentration (EC50) values are determined by computer fit to a concentration-response curve. An EC50 value is not calculated if the efficacy for the compound is <20%. Reported values represent means from two to nine separate experiments.

The target in data set [2] is T3, PPARγ ligand binding domain / CREB-binding protein (CBP) (Homo sapiens, UniProt P37231).
T3 construct: expressed in transfected cells; host or cells: CV-1 cells
T3 sequence (Q92793 whole entry partner, species assumed, one chain of several, the tested form may be a part): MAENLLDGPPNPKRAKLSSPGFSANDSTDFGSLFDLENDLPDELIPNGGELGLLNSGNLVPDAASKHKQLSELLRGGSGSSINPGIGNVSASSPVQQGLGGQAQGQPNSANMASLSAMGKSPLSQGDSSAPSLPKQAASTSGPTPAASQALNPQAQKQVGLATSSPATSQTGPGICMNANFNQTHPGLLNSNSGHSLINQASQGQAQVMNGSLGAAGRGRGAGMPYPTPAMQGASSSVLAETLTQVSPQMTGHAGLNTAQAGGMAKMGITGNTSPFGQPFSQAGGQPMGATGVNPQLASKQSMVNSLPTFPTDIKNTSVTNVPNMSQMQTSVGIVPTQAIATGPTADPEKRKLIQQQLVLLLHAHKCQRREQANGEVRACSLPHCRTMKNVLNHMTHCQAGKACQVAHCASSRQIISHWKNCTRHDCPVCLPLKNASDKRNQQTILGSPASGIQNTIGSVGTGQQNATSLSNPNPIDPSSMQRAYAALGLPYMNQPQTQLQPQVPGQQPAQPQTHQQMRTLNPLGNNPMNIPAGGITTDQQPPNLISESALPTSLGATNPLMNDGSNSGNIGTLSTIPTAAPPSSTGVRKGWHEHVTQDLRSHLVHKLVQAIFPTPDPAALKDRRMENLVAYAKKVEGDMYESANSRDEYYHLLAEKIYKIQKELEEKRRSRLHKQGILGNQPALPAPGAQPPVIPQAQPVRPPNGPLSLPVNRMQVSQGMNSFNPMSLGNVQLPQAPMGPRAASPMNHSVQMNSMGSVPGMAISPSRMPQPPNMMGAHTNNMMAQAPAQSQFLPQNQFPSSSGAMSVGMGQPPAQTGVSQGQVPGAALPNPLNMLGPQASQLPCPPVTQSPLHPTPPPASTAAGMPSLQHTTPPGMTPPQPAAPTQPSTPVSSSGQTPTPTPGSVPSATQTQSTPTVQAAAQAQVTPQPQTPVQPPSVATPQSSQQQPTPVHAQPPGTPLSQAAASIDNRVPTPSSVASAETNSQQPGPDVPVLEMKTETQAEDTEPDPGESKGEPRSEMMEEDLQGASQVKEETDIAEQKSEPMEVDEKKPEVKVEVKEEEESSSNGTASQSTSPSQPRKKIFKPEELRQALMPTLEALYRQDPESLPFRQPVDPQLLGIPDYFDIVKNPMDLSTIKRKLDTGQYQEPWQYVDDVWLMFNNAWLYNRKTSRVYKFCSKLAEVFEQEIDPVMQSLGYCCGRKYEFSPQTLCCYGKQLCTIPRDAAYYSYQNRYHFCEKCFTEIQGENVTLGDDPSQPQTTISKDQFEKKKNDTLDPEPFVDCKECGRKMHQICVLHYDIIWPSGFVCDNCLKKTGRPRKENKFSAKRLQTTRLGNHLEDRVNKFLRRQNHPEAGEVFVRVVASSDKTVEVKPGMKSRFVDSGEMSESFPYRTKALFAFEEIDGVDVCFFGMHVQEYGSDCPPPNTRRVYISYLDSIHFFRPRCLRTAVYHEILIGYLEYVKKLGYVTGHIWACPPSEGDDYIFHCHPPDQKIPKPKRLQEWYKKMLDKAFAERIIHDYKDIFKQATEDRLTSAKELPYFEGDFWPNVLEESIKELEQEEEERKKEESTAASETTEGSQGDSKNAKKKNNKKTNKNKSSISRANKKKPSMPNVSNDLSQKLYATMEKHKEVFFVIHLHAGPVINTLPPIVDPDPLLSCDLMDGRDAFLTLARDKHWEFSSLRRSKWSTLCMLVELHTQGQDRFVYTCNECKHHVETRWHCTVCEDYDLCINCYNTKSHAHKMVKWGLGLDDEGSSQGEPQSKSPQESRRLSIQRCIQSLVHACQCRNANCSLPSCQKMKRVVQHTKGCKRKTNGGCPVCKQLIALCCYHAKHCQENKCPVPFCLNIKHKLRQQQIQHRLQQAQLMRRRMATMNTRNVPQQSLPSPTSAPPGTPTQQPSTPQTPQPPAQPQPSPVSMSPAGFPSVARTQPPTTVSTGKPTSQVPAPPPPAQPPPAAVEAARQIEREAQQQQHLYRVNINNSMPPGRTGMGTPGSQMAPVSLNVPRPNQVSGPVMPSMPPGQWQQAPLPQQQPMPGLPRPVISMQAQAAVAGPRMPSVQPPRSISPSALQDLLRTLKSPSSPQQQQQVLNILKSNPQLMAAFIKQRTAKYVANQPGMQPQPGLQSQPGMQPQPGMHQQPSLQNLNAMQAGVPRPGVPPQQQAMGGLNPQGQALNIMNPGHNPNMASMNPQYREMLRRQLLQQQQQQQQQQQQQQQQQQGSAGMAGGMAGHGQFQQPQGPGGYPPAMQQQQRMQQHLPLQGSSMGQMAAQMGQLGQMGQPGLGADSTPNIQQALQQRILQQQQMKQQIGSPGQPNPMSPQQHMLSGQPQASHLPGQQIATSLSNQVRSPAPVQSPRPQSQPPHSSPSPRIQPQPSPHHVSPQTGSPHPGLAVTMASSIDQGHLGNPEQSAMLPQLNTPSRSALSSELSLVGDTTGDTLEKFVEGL
The data set is described as follows: Co-factor recruitment assay (mammalian-2-hybrid, CV-1 cells), CBP. As to conditions: for CBP Eff: relative to a PPARγ full agonist. It is filed as cell-based. An excerpt:
(§2) A mammalian-2-hybrid assay system in CTF format is done in CV-1 cells. The following plasmids are used: a mammalian expression vector encoding a fusion of the GAL4 DNA binding domain with the PPARγ ligand binding domain; a mammalian expression vector encoding a fusion of the VP16 transactivation domain with the nuclear receptor interaction domain of the respective co-activators: CREB-binding protein (CBP), peroxisome proliferator-activated receptor gamma coactivator-1 (PGC-1), activating signal cointegrator-2 (ASC-2), thyroid hormone receptor-activated protein complex (TRAP220), and the peptide C33; and a reporter plasmid (multimerized GAL4 binding sites/minimal TK promoter driving a luciferase cDNA). Cells are transfected in batch format and treated with compound (full log dilution from 0.1 nM to 10 μM) or vehicle for 24 hours. Subsequently, the cells are lysed and luciferase activity is measured. Luciferase activity serves as the endpoint for interaction between co-activator and receptor. The data are presented as % efficacy relative to a PPARγ full agonist and represent means from four to six separate experiments.

In data set [3] the target is T4, PPARγ ligand binding domain / TRAP220 (Homo sapiens, UniProt P37231).
T4 construct: expressed in transfected cells; host or cells: CV-1 cells
Put plainly: Co-factor recruitment assay (mammalian-2-hybrid, CV-1 cells), TRAP220. It is filed as cell-based. As to conditions: for TRAP220 Eff: relative to a PPARγ full agonist.
Description: as §2

Data set [4] deals with T5, PPARγ ligand binding domain / ASC-2 (Homo sapiens, UniProt P37231).
T5 construct: expressed in transfected cells; host or cells: CV-1 cells
T5 sequence (Q14686 whole entry partner, species assumed, one chain of several, the tested form may be a part): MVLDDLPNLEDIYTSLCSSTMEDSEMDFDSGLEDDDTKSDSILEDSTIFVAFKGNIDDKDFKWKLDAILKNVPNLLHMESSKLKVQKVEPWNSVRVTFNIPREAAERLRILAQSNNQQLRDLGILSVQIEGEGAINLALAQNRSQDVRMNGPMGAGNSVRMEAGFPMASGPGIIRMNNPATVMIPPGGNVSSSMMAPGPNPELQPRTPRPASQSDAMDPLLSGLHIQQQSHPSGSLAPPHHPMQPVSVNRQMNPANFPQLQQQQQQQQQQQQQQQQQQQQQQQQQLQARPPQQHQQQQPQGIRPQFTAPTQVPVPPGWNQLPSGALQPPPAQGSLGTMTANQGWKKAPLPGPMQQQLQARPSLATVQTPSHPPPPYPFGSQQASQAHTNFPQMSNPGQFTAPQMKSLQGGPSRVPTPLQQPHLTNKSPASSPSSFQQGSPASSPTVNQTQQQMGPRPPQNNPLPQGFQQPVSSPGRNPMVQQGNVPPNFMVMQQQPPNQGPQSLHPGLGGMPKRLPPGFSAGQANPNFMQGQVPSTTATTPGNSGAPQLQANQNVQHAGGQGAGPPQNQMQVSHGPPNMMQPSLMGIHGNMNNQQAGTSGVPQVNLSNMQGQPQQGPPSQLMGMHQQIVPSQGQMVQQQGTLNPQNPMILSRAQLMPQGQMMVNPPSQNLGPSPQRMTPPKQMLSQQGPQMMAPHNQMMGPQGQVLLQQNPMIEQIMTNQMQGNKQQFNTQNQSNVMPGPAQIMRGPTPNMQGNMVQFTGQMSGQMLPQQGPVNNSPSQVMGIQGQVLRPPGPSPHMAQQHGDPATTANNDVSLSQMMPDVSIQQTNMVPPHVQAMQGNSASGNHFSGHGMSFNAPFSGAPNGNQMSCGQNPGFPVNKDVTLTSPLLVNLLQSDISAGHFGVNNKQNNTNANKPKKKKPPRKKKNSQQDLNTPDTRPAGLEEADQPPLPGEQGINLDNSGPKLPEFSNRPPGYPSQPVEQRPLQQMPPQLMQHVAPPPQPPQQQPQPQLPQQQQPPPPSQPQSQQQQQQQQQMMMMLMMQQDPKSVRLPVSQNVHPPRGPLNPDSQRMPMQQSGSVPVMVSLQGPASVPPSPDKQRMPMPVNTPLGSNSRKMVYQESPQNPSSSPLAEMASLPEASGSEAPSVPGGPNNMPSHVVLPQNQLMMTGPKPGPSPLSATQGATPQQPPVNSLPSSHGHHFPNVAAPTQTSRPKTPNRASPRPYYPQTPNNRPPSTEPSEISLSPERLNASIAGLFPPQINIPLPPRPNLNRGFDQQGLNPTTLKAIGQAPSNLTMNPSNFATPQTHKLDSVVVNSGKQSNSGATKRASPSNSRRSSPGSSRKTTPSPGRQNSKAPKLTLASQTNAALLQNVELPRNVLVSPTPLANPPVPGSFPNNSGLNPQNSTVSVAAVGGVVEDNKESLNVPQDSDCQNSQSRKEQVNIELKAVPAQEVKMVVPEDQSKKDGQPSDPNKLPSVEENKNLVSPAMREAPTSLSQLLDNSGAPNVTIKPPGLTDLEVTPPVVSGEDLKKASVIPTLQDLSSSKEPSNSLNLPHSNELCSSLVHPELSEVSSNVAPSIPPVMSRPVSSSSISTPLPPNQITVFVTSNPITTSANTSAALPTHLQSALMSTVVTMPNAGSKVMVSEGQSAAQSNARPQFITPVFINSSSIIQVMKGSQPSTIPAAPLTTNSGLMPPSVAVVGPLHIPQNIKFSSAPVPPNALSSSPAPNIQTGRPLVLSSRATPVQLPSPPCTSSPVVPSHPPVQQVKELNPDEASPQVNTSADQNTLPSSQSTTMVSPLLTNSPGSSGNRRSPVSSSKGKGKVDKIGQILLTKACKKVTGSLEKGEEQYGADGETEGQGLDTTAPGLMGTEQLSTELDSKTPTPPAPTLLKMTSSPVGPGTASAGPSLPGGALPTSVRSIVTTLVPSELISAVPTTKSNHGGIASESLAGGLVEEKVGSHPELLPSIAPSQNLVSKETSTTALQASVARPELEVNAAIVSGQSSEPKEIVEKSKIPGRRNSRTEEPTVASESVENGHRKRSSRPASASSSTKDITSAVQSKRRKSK
The data set is described as follows: Co-factor recruitment assay (mammalian-2-hybrid, CV-1 cells), ASC-2. It is filed as cell-based. As to conditions: for EC50: read-out: ASC2 EC50; for ASC2 Eff: relative to a PPARγ full agonist.
Description: as §2

Data set [5] has as its target T6, PPARγ ligand binding domain / peptide C33 (Homo sapiens, UniProt P37231).
T6 construct: expressed in transfected cells; host or cells: CV-1 cells
T6 sequence (P37231 238-503 limits assumed): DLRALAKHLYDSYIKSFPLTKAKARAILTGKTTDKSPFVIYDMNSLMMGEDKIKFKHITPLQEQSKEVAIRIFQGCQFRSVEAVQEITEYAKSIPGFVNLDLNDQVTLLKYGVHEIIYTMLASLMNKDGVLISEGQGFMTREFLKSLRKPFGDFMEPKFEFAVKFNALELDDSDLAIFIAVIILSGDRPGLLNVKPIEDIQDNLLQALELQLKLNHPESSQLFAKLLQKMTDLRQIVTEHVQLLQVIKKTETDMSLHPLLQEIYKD
The data set is described as follows: Co-factor recruitment assay (mammalian-2-hybrid, CV-1 cells), peptide C33. In kind it is cell-based. As to conditions: for C33 Eff: relative to a PPARγ full agonist.
Description: as §2

The subject of a further data set is diabetic (db/db) mice. Put plainly: Glucose, triglyceride, hematocrit levels and body weight gain in diabetic mice. As to conditions: for plasma glucose normalization / plasma triglycerides normalization: db/db mice.
Data set [6] deals with T7, PPARγ (Homo sapiens, UniProt P37231).
T7 sequence (P37231 238-505 limits assumed): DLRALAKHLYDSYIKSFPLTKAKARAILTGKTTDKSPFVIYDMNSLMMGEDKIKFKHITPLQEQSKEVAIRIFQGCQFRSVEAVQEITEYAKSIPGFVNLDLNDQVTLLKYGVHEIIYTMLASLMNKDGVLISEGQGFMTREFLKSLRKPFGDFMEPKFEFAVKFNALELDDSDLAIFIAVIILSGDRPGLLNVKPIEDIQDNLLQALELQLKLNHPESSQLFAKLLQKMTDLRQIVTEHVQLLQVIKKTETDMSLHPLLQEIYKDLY
The data set is described as follows: Cotransfection (CTF) / response element assays, PPARγ in CV-1 cells. In kind it is cell-based. As to conditions: response element assay, GAL4 chimeric system; for EC50: read-out: Gla4 EC50. Also on record: Gla4 Eff; other: response element assay, GAL4 chimeric system; A PPARγ bacterial galactosidase (GAL4) chimeric system is also used.
Description: as §1

Where [7] appears, read: 3 mg/kg/day oral gavage, 7 days.
The mark [8] stands for this setting: 10 mg/kg/day oral gavage, 7 days.
The mark [9] stands for this setting: 30 mg/kg/day oral gavage, 7 days.
Setting [10] is: 100 mg/kg/day oral gavage, 7 days.

Description for diabetic (db/db) mice: Five-week-old male diabetic (db/db) mice (Harlan Laboratories, Indianapolis, Ind.) are housed in plastic cages (n=6/cage; cage size is approximately 10×20×8″ with aspen chip bedding) with free access to water (sipper system—city tap water) and food (Purina 5008). After two weeks of acclimation, animals (7 weeks of age) are bled on day 0 at 1000-1200 h (lights on 0600 h) and assigned to treatment groups (n=5 or 6) based on starting glucose values. Compound or vehicle only treatments are administered daily by oral gavage at approximately 0730 h. Body weights are measured at the beginning (day 0) and end (day 7 or day 14) of the studies. Blood is collected in heparinized tubes from the tail of nonfasted animals two to three hours after the last dose. Hematocrit, glucose and triglycerides levels are then determined. The reported values for glucose and triglyceride levels represent the % of normalization compared to the lean littermate values set at 100% or glucose normalization calculated based on a normal glucose level of 250 mg/dl. Statistical significance between experimental groups is assessed using a two-sided student's t-test.
Plasma glucose and hematocrit levels along with body weight are measured before the study began (day 0) and at the end of the study (day 14).
Plasma glucose, triglyceride, and hematocrit levels along with body weight are measured before the study began (day 0) and at the end of the study (day 7).

As usually defined, the IC50 is the concentration at which inhibition is half-maximal. A high value points to lower potency. In general, EC50 refers to the concentration giving half of the maximal effect. Compound `COc1ccc(CCNC(=O)COc2ccc(C[C@H](OC)C(=O)O)cc2)cc1` [formula III, (2S)-3-(4-{[2-(4-methoxy-phenyl)-ethylcarbamoyl]-methoxy}-phenyl)-2-methoxy-propionic acid] came in with an IC50 on PPARγ [1] of 0.052 µM. Further, the EC50 on PPARα was 1.3 µM; in data set [2], 1.92 µM; in data set [4], 1.38 µM; in data set [5], 3.01 µM; on PPARγ [6], 1.98 µM. Moreover, on PPARα, the “Eff (α)” value is recorded as 43 % efficacy. Further, in data set [2], the “CBP Eff” value is on record as 15 % efficacy. In data set [3], the TRAP220 efficacy entry is given as “Eff < 20”. Further, the “TRAP220 Eff” value in data set [3] is reported as 7 % efficacy. Moreover, in data set [4], the “ASC2 Eff” value is listed as 15 % efficacy. For the same compound, the “C33 Eff” value in data set [5] is recorded as 13 % efficacy. The plasma glucose normalization in the data set on diabetic (db/db) mice (1 mg/kg/day oral gavage, 14 days) was 42.7 % normalization; in the data set with diabetic (db/db) mice (3 mg/kg/day oral gavage, 14 days), 68.3 % normalization; in the data set with diabetic (db/db) mice (10 mg/kg/day oral gavage, 14 days), 96.1 % normalization; in the data set on diabetic (db/db) mice (30 mg/kg/day oral gavage, 14 days) it was 109.3 % normalization. Besides, the “dose-dependent reduction in hematocrit levels, indicative of plasma volume expansion” value in the data set with diabetic (db/db) mice (db/db mice, 1, 3, 10, 30 mg/kg/day oral gavage, 14 days) is listed as “not seen”. In addition, the “Gla4 Eff” value on PPARγ [6] is 30 % efficacy.
In the case of `CCOc1ccc(CCNC(=O)COc2ccc(C[C@H](OC)C(=O)O)cc2)cc1` [formula V, (S)-3-(4-{[2-(4-ethoxy-phenyl)-ethylcarbamoyl]-methoxy}-phenyl)-2-methoxy-propionic acid], the IC50 at PPARγ [1] is 0.03 µM. Also, the half-maximal effective concentration (EC50) at PPARα worked out at 1.81 µM; in data set [2] it was 2.64 µM; in data set [3], 3.06 µM; in data set [4], 2.87 µM; in data set [5] it was 2.89 µM; on PPARγ [6], 1.91 µM. Besides, at PPARα, the “Eff (α)” value came out at 39 % efficacy. Further, the “CBP Eff” value in data set [2] was 18 % efficacy. In addition, the “TRAP220 Eff” value in data set [3] is 16 % efficacy. For the same compound, the “ASC2 Eff” value in data set [4] was 33 % efficacy. For the same compound, in data set [5], the “C33 Eff” value stood at 43 % efficacy. The plasma glucose normalization was found to be 61.2 % normalization in the data set with diabetic (db/db) mice (setting [7]), 87.5 % normalization in the data set on diabetic (db/db) mice (setting [8]), 105.6 % normalization in the data set on diabetic (db/db) mice (setting [9]) and 110.3 % normalization in the data set with diabetic (db/db) mice (setting [10]). The plasma triglycerides normalization in the data set with diabetic (db/db) mice (setting [7]) is 108.1 % normalization; in the data set on diabetic (db/db) mice (setting [8]) it was 108.1 % normalization; in the data set on diabetic (db/db) mice (setting [9]) it was 121.1 % normalization; in the data set on diabetic (db/db) mice (setting [10]), 130.6 % normalization. For the same compound, on PPARγ [6], the “Gla4 Eff” value stood at 39 % efficacy.
